In this experiment the test system is MCF7. Briefly: Antitumor activity against human MCF7 cells by MTT assay. The class given is functional, cell-based.

≈ marks a conversion by molar mass, not a printed value.

A word on the IC50: it is the concentration needed to halve the response being measured. A low value points to higher potency.

With `CC(C)C[C@@H]1OC(=O)CNC(=O)[C@H](C(C)C)NC(=O)[C@H](Cc2ccc(O)cc2)NC(=O)CNC(=O)[C@@H](CC(C)C)NC1=O`, the IC50 came to 100 µg/mL (≈ 166 µM).

The values above are taken from ChEMBL document CHEMBL1141329, “Cyclic peptides from an endophytic fungus obtained from a mangrove leaf (Kandelia candel)” (J Nat Prod, 2007).
